Measurements reported in publication PMC9860728, “Identification of New N-methyl-piperazine Chalcones as Dual MAO-B/AChE Inhibitors” (Pharmaceuticals, 2023).

What was measured:
[1] = molecular target: AChE (Electrophorus electricus, UniProt O42275); experiment: AChE inhibition assay (Ellman method, ATCI); format: biochemical; conditions: for remaining activity at 10 µM / Residual Activities at 10 μM (%) AChE: 10 μM compound, mean ± SD; for remaining activity at 10 µM: read-out: Residual Activities at 10 μM (%) AChE; for SI (ChE): AChE selectivity over BChE, based on IC50 values
Description: (§1) For measuring cholinesterase (ChE) activity, the Ellman method was employed with a slight modification. The AChE and BchE with ~0.02 U/mL were reacted with 0.5 mM ATCI and BTCI, respectively, followed by addition of 0.5 mM DTNB. […] In the inhibition assay, the enzyme and the compound were preincubated in reaction buffer for 15 min, followed by adding substrates and DTNB.

[2] = molecular target: T1, MAO-A (Homo sapiens, UniProt P21397); experiment: MAO-A enzyme inhibition assay (kynuramine substrate); format: biochemical; conditions: mean ± SD; for remaining activity at 10 µM: read-out: Residual Activities at 10 μM (%) MAO-A
T1 construct: purchased Sigma Aldrich
T1 sequence (P21397 1-527): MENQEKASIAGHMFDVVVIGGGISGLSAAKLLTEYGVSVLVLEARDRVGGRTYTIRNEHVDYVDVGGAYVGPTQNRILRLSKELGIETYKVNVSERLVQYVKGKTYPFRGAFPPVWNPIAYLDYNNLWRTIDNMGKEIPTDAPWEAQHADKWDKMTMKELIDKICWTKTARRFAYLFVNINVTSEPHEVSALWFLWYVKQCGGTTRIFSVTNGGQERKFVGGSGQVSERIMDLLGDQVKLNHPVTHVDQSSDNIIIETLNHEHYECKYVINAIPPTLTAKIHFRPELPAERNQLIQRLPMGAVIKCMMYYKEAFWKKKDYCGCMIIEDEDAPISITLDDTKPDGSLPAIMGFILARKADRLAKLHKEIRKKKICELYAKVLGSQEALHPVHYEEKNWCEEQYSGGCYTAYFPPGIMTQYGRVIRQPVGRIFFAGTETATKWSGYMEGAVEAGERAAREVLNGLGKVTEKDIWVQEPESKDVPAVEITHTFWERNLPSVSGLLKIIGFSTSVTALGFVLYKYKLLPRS
Description: (§2) MAO assays were performed as described previously, i.e., ~0.09 U/mL of MAO-A and MAO-B were reacted with 0.06 mM kynuramine and 0.3 mM benzylamine, respectively, in 50 mM sodium phosphate (pH 7.2). […] For inhibition assay, the compounds were dissolved in DMSO and added into the reaction mixture. The final concentration of DMSO in the reaction mixture was less than 1% to avoid solvent disturbance.

[3] = molecular target: BChE (Equus caballus, UniProt P81908); experiment: biochemical; conditions: read-out: Residual Activities at 10 μM (%) BChE
Description: as §1

[4] = molecular target: T2, MAO-B (Homo sapiens, UniProt P27338); experiment: MAO-B enzyme inhibition assay (benzylamine substrate); format: biochemical; conditions: for remaining activity at 10 µM: read-out: Residual Activities at 10 μM (%) MAO-B; for SI (MAO): MAO-B selectivity over MAO-A, based on IC50 values
T2 construct: purchased Sigma Aldrich
T2 sequence (P27338 1-520): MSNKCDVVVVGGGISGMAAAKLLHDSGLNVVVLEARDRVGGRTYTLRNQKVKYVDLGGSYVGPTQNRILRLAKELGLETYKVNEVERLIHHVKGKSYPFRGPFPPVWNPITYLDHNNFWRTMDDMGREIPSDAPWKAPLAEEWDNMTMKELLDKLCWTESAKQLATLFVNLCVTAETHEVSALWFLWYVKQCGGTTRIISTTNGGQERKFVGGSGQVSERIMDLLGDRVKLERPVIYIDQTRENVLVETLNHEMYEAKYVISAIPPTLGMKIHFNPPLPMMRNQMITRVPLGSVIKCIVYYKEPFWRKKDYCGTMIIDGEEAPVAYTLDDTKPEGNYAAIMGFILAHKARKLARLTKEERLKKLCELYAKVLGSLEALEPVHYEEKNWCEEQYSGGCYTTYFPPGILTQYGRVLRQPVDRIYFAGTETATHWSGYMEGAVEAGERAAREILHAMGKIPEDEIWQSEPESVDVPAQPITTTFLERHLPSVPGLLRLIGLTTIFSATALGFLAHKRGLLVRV
Description: as §2

BChE, sequence (P81908 whole entry): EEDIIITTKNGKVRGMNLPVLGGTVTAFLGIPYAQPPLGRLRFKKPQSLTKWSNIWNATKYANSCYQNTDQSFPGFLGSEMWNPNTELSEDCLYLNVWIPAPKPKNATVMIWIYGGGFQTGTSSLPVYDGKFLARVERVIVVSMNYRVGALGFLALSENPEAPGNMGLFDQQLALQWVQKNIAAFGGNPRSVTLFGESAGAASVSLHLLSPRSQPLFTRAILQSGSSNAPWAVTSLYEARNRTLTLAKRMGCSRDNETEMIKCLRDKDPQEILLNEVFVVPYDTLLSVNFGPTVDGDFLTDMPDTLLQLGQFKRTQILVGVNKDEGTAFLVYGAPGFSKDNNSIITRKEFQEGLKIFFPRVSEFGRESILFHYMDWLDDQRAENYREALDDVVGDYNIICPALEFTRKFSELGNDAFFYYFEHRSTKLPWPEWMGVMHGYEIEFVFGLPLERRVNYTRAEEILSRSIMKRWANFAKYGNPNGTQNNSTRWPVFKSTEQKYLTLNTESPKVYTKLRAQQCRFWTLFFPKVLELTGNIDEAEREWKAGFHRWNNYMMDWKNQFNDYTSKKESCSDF
AChE, sequence (O42275 24-633): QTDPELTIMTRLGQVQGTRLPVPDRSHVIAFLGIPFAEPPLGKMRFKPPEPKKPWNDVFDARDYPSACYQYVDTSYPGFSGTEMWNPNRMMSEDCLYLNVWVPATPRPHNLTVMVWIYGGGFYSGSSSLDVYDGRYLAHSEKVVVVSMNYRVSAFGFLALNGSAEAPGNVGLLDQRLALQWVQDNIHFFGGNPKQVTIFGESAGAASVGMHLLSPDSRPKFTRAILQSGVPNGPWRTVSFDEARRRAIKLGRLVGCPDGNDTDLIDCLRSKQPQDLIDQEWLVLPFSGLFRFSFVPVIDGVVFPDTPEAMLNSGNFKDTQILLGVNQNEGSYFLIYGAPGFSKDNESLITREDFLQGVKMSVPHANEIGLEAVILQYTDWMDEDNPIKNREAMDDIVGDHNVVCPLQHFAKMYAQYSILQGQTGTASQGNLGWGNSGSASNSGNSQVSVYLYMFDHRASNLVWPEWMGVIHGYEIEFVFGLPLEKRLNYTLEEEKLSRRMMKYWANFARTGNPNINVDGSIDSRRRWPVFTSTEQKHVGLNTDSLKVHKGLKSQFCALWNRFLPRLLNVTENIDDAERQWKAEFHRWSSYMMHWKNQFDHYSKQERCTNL

SMILES	remaining activity at 10 µM [1] [%]	SI (ChE) [1]	remaining activity at 10 µM ([2]; 10 μM compound) [%]	IC50 [2] [µM]	remaining activity at 10 µM [3] [%]	remaining activity at 10 µM ([4]; 10 μM compound, mean ± SD) [%]	SI (MAO) [4]	IC50 ([4]; mean ± SD) [µM]	Residual Activities at 10 μM (%) MAO-A ([2]; 10 μM compound) [%]	Residual Activities at 10 μM (%) AChE [1] [%]	Residual Activities at 10 μM (%) MAO-B ([4]; 10 μM compound, mean ± SD) [%]
CN1CCN(c2ccc(C(=O)/C=C/c3cccc(C(F)(F)F)c3)cc2)CC1 [Compound 2a, (E)-1-(4-(4-methylpiperazin-1-yl)phenyl)-3-(3-(trifluoromethyl)phenyl)prop-2-en-1-one]	34.9 ± 5.19	2.44	118 ± 7.73	> 40	58.6 ± 6.8	12.8 ± 0.79	15.50	2.58 ± 0.19			
CN1CCN(c2ccc(C(=O)/C=C/c3ccc(C(F)(F)F)cc3)cc2)CC1 [Compound 2b, (E)-1-(4-(4-methylpiperazin-1-yl)phenyl)-3-(4-(trifluoromethyl)phenyl)prop-2-en-1-one]	19 ± 0.55	5.92		> 40	58.5 ± 1.38	21 ± 4.02	12.90	3.1 ± 0.04	88.19 ± 6.87		
CN1CCN(c2ccc(C(=O)/C=C/c3ccc(F)cc3)cc2)CC1 [Compound 2c, (E)-3-(4-fluorophenyl)-1-(4-(4-methylpiperazin-1-yl)phenyl)prop-2-en-1-one]	49.4 ± 4.66	1.79	103 ± 8.84	> 40	49.7 ± 3.7	22.7 ± 1.61	13.42	2.98 ± 0.18			
CN1CCN(c2ccc(C(=O)/C=C/c3ccc(C#N)cc3)cc2)CC1 [Compound 2d, (E)-4-(3-(4-(4-methylpiperazin-1-yl)phenyl)-3-oxoprop-1-en-1-yl)benzonitrile]	24.3 ± 0.95	10.38	72.3 ± 2.5	> 40	71.5 ± 5.25	16.7 ± 4.71	18.18	2.2 ± 0.06			
CC(C)c1ccc(/C=C/C(=O)c2ccc(N3CCN(C)CC3)cc2)cc1 [Compound 2e, (E)-3-(4-isopropylphenyl)-1-(4-(4-methylpiperazin-1-yl)phenyl)prop-2-en-1-one]		3.83	60.6 ± 3.98	16.2 ± 1.74	49.3 ± 1.28	44.1 ± 3.04	1.94	8.36 ± 0.39		17.75 ± 1.85	
CN1CCN(c2ccc(C(=O)/C=C/c3ccc(N(C)C)cc3)cc2)CC1 [Compound 2f, (E)-3-(4-(dimethylamino)phenyl)-1-(4-(4-methylpiperazin-1-yl)phenyl)prop-2-en-1-one]		>13.20	83.6 ± 4.22	> 40	76.5 ± 3.35	21.3 ± 3.77	12.16	3.29 ± 0.08		26.37 ± 1.85	
CSc1ccc(/C=C/C(=O)c2ccc(N3CCN(C)CC3)cc2)cc1 [Compound 2g, (E)-1-(4-(4-methylpiperazin-1-yl)phenyl)-3-(4-(methylthio)phenyl)prop-2-en-1-one]	50.4 ± 4.43	>3.22	97.2 ± 1.99	> 40	74.7 ± 4.48	40 ± 1.67	5.93	6.74 ± 0.03			
CN1CCN(c2ccc(C(=O)/C=C/c3ccc(OC(F)F)cc3)cc2)CC1 [Compound 2h, (E)-3-(4-(difluoromethoxy)phenyl)-1-(4-(4-methylpiperazin-1-yl)phenyl)prop-2-en-1-one]	38 ± 0.92	>6.87	55.2 ± 4.12	> 40	73.9 ± 3.35	17.3 ± 3.77	6.51	6.14 ± 0.43			
CN1CCN(c2ccc(C(=O)/C=C/c3cc(F)cc(C(F)(F)F)c3)cc2)CC1 [Compound 2i, (E)-3-(3-fluoro-5-(trifluoromethyl)phenyl)-1-(4-(4-methylpiperazin-1-yl)phenyl)prop-2-en-1-one]	51.5 ± 4.92	1.82	114 ± 6.06	> 40	63.7 ± 6.24	20.4 ± 2.47	17.17	2.33 ± 0.14			
CN1CCN(c2ccc(C(=O)/C=C/c3cc(C(F)(F)F)cc(C(F)(F)F)c3)cc2)CC1 [Compound 2j, (E/Z)-3-(3,5-bis(trifluoromethyl)phenyl)-1-(4-(4-methylpiperazin-1-yl)phenyl)prop-2-en-1-one]	57.1 ± 5.39	>2.60	97.1 ± 4.04	> 40	86 ± 1.04	67.8 ± 5.36	2.55	15.7 ± 1.17			
CN1CCN(c2ccc(C(=O)/C=C/c3ccc(Cl)c(C(F)(F)F)c3)cc2)CC1 [Compound 2l, (E)-3-(4-chloro-3-(trifluoromethyl)phenyl)-1-(4-(4-methylpiperazin-1-yl)phenyl)prop-2-en-1-one]	68.5 ± 1.32	1.85	85.9 ± 1.66	> 40	73 ± 1.75		28.37	1.41 ± 0.04			0.00 ± 1.79
COc1cc(/C=C/C(=O)c2ccc(N3CCN(C)CC3)cc2)ccc1F [Compound 2m, (E)-3-(4-fluoro-3-methoxyphenyl)-1-(4-(4-methylpiperazin-1-yl)phenyl)prop-2-en-1-one]	27.6 ± 1.9	4.18	78.8 ± 1.66	> 40	66.8 ± 2.1	39.9 ± 6.26	5.92	6.76 ± 0.82			
CN1CCN(c2ccc(C(=O)/C=C/c3cc(C(F)(F)F)ccc3Cl)cc2)CC1 [Compound 2o, (E)-3-(2-chloro-5-(trifluoromethyl)phenyl)-1-(4-(4-methylpiperazin-1-yl)phenyl)prop-2-en-1-one]	37.6	0.31	92.5 ± 4.23	> 40	6.46 ± 3.05	22.9 ± 2.26	12.50	3.2 ± 0.32			
